Measured values published in US9567324B2, “Substituted nicotinamide derivatives as kinase inhibitors” (Allergan, Inc., priority 2013, dated 2017).

Columns and labels:
[1] = molecular target: PDGFRβ (Homo sapiens (Human), UniProt P09619); test: PDGFRβ Cellular Assay (FLIPR, PDGF-induced intracellular calcium in NHDF-Ad); assay type: cell-based; settings: PDGF-BB stimulation (30 ng/mL), Fluo-4 FLIPR
Description: Automated FLIPR (Fluorometric Imaging Plate Reader) technology was used to screen for inhibitors of PDGF-induced increases in intracellular calcium levels in fluorescent dye loaded […] cells. NHDF-Ad (Normal Human Dermal Fibroblasts, Adult; Lonza) were seeded in 384-well fibronectin coated black-walled plates overnight @ 37° C./5% CO2. Cells were loaded with calcium indicator Fluo-4 for 45 minutes at 37° C. Cells were washed 2 times (E1×405, Biotek Instruments) to remove extracellular dye. For screening, cells were pre-incubated with test agents for 30 minutes, at a single concentration (10 uM) or at concentrations ranging from 0.0001 to 10.0 uM followed by PDGF-BB stimulation (30 ng/mL). Changes in fluorescence at 516 nm were measured simultaneously in all 384 wells using a cooled CCD camera. Data were generated by determining max-min fluorescence levels for unstimulated, stimulated, and drug treated samples. IC50 values for test compounds were calculated from % inhibition of PDGF-BB stimulated responses in the absence of inhibitor.

[2] = molecular target: PDGFRβ (purified cytoplasmic domain PDGFR-b protein) (Homo sapiens (Human), UniProt P09619); test: PDGFRβ Kinase Assay; assay type: biochemical; settings: for IC50: 36 μM ATP, poly-Glu-Tyr (4:1) substrate, ELISA read-out, read-out: PDGFRβ Enzyme Assay (IC50 nM)
Description: Biochemical PDGFRβ kinase assays were performed in 96 well microtiter plates that were coated overnight with 75 μg of poly-Glu-Tyr (4:1) in 10 mM Phosphate Buffered Saline (PBS), pH 7.4. The coated plates were washed with 2 mls per well PBS+0.05% Tween-20 (PBS-T), blocked by incubation with PBS containing 1% BSA, then washed with 2 mls per well PBS-T prior to starting the reaction. Reactions were carried out in 100 μL reaction volumes containing 36 μM ATP in kinase buffer (50 mM Hepes buffer pH 7.4, 20 mM MgCl2, 0.1 mM MnCl2 and 0.2 mM Na3VO4). Test compounds were reconstituted in 100% DMSO and added to the reaction to give a final DMSO concentration of 5%. Reactions were initiated by the addition 20 ul per well of kinase buffer containing 200-300 ng purified cytoplasmic domain PDGFR-b protein (Millipore). Following a 60 minute incubation at 30° C., the reactions were washed 2 mls per well PBS-T. 100 μl of a monoclonal anti-phosphotyrosine antibody-peroxidase conjugate diluted 1:10,000 in PBS-T was added to the wells for 30 minutes. Following a 2 mls per well wash with PBS-Tween-20, 100 μl of O-Phenylenediamine Dihydrochloride in phosphate-citrate buffer, containing urea hydrogen peroxide, was added to the wells for 7-10 minutes as a colorimetric substrate for the peroxidase. The reaction was terminated by the addition of 100 μl of 2.5N H2SO4 to each well and read using a microplate ELISA reader set at 492 nm. IC50 values for compound inhibition were calculated directly from graphs of optical density (arbitrary units) versus compound concentration following subtraction of blank values.

PDGFRβ (purified cytoplasmic domain PDGFR-b protein), sequence (P09619 554-1106): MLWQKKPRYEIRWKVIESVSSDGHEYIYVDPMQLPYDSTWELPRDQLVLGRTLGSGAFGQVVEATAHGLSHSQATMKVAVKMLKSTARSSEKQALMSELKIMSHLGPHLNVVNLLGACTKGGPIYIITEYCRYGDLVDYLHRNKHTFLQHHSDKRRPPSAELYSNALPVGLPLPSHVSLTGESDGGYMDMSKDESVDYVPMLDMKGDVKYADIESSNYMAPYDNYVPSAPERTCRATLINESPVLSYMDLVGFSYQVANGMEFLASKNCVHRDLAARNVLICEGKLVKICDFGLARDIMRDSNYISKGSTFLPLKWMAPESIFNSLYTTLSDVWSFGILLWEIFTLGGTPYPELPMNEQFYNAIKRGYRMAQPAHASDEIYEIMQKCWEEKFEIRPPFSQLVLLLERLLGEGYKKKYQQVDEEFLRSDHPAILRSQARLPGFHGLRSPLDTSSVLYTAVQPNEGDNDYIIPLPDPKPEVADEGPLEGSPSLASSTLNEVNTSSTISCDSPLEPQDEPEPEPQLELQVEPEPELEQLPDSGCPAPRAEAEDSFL
PDGFRβ, sequence (P09619 33-1106): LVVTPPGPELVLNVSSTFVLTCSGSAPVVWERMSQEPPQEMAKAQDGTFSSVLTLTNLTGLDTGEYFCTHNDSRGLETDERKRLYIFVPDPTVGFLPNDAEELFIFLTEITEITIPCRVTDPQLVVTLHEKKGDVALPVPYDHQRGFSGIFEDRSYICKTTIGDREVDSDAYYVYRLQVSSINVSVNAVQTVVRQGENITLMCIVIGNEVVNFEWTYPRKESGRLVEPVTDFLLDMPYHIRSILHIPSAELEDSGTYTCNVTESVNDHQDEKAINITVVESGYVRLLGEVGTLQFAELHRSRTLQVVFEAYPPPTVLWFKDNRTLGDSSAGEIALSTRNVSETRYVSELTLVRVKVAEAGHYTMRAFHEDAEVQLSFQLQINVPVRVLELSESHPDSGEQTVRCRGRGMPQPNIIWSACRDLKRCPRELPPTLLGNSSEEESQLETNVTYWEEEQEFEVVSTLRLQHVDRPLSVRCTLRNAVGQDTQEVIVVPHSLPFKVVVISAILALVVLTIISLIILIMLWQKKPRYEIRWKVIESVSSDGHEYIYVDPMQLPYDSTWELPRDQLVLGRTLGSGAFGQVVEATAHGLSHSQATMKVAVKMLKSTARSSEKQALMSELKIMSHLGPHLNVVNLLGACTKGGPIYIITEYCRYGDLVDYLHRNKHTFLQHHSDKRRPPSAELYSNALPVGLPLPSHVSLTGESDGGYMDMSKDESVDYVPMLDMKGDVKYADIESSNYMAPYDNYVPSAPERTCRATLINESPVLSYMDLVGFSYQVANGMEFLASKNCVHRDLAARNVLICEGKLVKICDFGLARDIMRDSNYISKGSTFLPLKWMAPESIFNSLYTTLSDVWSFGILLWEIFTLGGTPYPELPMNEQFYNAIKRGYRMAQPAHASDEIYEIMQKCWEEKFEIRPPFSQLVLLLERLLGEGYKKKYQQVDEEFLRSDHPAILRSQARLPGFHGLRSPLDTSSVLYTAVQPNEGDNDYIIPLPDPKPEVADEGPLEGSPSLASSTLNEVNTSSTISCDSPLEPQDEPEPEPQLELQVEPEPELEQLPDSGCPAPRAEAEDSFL

SMILES | IC50 [1] | IC50 [2] | activity/potency at the PDGFRβ receptor (in words) [2]
Cc1ccc(F)c(C(=O)Nc2cccc(C#Cc3cc(C(=O)N=S4(=O)CCNCC4)cnc3N)c2)c1 [Example 17, 6-Amino-5-({3-[(2-fluoro-5-methylbenzoyl)amino]phenyl}ethynyl)-N-(1-oxido-1λ^4,4-thiazinan-1-ylidene)nicotinamide] | – | 7 nM | greatest potency
Cc1ccoc1C(=O)Nc1cccc(C#Cc2cc(C(=O)N=S3(=O)CCN(C(=O)OC(C)(C)C)CC3)cnc2N)c1 [Example 13, tert-Butyl 1-({[6-amino-5-({3-[(3-methyl-2-furoyl)amino]phenyl}ethynyl)pyridin-3-yl]carbonyl}imino)-1λ^4,4-thiazinane-4-carboxylate 1-oxide] | – | – | greatest potency
Cc1ccoc1C(=O)Nc1cccc(C#Cc2cncc(C(=O)N=S3(=O)CCN(C(N)=O)CC3)c2)c1 [Example 3, 1-({[5-({3-[(3-Methyl-2-furoyl)amino]phenyl}ethynyl)pyridin-3-yl]carbonyl}imino)-1λ^4,4-thiazinane-4-carboxamide 1-oxide] | – | – | greatest potency
Cc1ccc(F)c(C(=O)Nc2cccc(C#Cc3cc(C(=O)N=S4(=O)CCN(C(=O)OC(C)(C)C)CC4)cnc3N)c2)c1 [Example 16, tert-butyl 1-({[6-Amino-5-({3-[(2-fluoro-5-methylbenzoyl)amino]phenyl}ethynyl)pyridin-3-yl]carbonyl}imino)-1λ^4,4-thiazinane-4-carboxylate 1-oxide] | – | – | greatest potency
CCOC(=O)CNC(=O)N1CCS(=O)(=NC(=O)c2cncc(C#Cc3cccc(NC(=O)c4occc4C)c3)c2)CC1 [Example 11, Ethyl({[1-({[5-({3-[(3-methyl-2-furoyl)amino]phenyl}ethynyl)pyridin-3-yl]carbonyl}imino)-1-oxido-1λ^4,4-thiazinan-4-yl]carbonyl}amino)acetate] | – | – | greatest potency
Cc1ccc(F)c(C(=O)Nc2cccc(C#Cc3cc(C(=O)N=S4(=O)CCN(C(N)=O)CC4)cnc3N)c2)c1 [Example 18, 1-({[6-Amino-5-({3-[(2-fluoro-5-methylbenzoyl)amino]phenyl}ethynyl)pyridin-3-yl]carbonyl}imino)-1λ^4,4-thiazinane-4-carboxamide 1-oxide] | – | 7 nM | –

More lines, now with the values ahead:

IC50 [1] | IC50 [2] | activity/potency at the PDGFRβ receptor (in words) [2] | SMILES
17 nM | – | – | Cc1ccc(F)c(NC(=O)c2cccc(C#Cc3cc(C(=O)N=S4(=O)CCOCC4)cnc3N)c2)c1 [Example 22, 6-amino-5-[(3-{[(2-fluoro-5-methylphenyl)amino]carbonyl}phenyl)ethynyl]-N-(4-oxido-1,4λ^4-oxathian-4-ylidene)nicotinamide]
– | 19 nM | – | COc1cccc(NC(=O)c2cccc(C#Cc3cc(C(=O)N=S4(=O)CCOCC4)cnc3N)c2)c1 [Example 25, 6-amino-5-[(3-{[(3-methoxyphenyl)amino]carbonyl}phenyl)ethynyl]-N-(4-oxido-1,4λ^4-oxathian-4-ylidene)nicotinamide]
– | 13 nM | – | Nc1ncc(C(=O)N=S2(=O)CCOCC2)cc1C#Cc1cccc(C(=O)Nc2ccc(Cl)c(C(F)(F)F)c2)c1 [Example 23, 6-amino-5-{[3-({[4-chloro-3-(trifluoromethyl)phenyl]amino}carbonyl)phenyl]ethynyl}-N-(4-oxido-1,4λ^4-oxathian-4-ylidene)nicotinamide]
– | 24 nM | – | Cc1ccc(F)c(C(=O)Nc2cccc(C#Cc3cc(C(=O)N=S4(=O)CCOCC4)cnc3N)c2)c1 [Example 21, 6-amino-5-({3-[(2-fluoro-5-methylbenzoyl)amino]phenyl}ethynyl)-N-(4-oxido-1,4λ^4-oxathian-4-ylidene)nicotinamide]
– | 10 nM | best activity | CC(C)(C)c1cc(NC(=O)c2cccc(C#Cc3cc(C(=O)N=S4(=O)CCOCC4)cnc3N)c2)no1 [Example 24, 6-amino-5-[(3-{[(5-tert-butylisoxazol-3-yl)amino]carbonyl}phenyl)ethynyl]-N-(4-oxido-1,4λ^4-oxathian-4-ylidene)nicotinamide]
19 nM | 23 nM | – | Cc1ccoc1C(=O)Nc1cccc(C#Cc2cncc(C(=O)N=S3(=O)CCOCC3)c2)c1 [Example 19, 5-({3-[(3-methyl-2-furoyl)amino]phenyl}ethynyl)-N-(4-oxido-1,4λ^4-oxathian-4-ylidene)nicotinamide]
31 nM | 51 nM | – | Cc1ccoc1C(=O)Nc1cccc(C#Cc2cc(C(=O)N=S3(=O)CCOCC3)cnc2N)c1 [Example 20, 6-amino-5-({3-[(3-methyl-2-furoyl)amino]phenyl}ethynyl)-N-(4-oxido-1,4λ^4-oxathian-4-ylidene)nicotinamide]
